Experiment in all cases: growth of human tumour cells (NCI), 48 h
For test [1], the system named is OVCAR-4.
The subject of test [2] is UO-31.
Test [3] deals with NCI-H226.
The subject of test [4] is RPMI-8226.
The subject of test [5] is XF498.
The test system of test [6] is SNB-75.
The subject of test [7] is KM12.
In test [8] the test system is HOP-62.
The test system of test [9] is ACHN.
The test system of test [10] is SK-MEL-28.
For test [11], the system named is U-251.
Test [12] deals with CCRF-CEM.
In test [13] the test system is SW-620.
The subject of test [14] is SK-OV-3.
Test [15] relates to EKVX.
Test [16] concerns CAKI-1.
For test [17], the system named is SR.
The subject of test [18] is RXF 393.
Test [19] relates to OVCAR-5.
The subject of test [20] is NCI/ADR-RES.

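Assay format: 96-well plates, 48-hour exposure. The concentration for 50% growth inhibition is given as GI50.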 The source made the active and inactive calls. Rule as the data show it: active = GI50 up to about 1.1 µM and inactive = higher. A value given as a limit tells only on which side of the number the result lay.

Consider eleven compounds from ChEMBL document CHEMBL1201862, “PubChem BioAssay data set” (2004).

For the compound `C=CCc1cc(-c2cc(CC=C)c(O)c(CNC)c2)cc(CNC)c1O`, the GI50 in test [1] is 16.5 µM (inactive); in [2], 12.9 µM (inactive); in test [3], 16.9 µM (inactive); in test [4], 20.7 µM (inactive); in [5] it was 16.3 µM (inactive); in test [6] it was 11 µM (inactive). In addition, the GI50 in test [7] is 16.6 µM (inactive); in [8], 18.8 µM (inactive); in test [9], 17.8 µM (inactive); in [10], 19.5 µM (inactive); in [11], 14.9 µM (inactive); in test [12] it was 7.4 µM (inactive). Also, in test [13], the GI50 is 17.3 µM (inactive).
Turning to `COC(=O)/C(C#N)=C1\CCC(C(=O)OC)N1C` (centres undefined), the GI50 in [1], in test [2], in test [14], in [4], in test [5] and in test [6] was > 100 µM (inactive) in each case. Further, the GI50 in [15], in test [7], in [16], in test [17], in test [8] and in [10] was > 100 µM (inactive) in each case. Further, the GI50 in test [11], in [12] and in test [18] was > 100 µM (inactive) each time.
`CCCC(O)c1cn(-c2cccc(S(=O)(=O)O)c2)nn1` (centres undefined): the GI50 in test [1], in test [2], in [14], in test [3], in test [4] and in test [5] was > 100 µM (inactive) throughout. The GI50 in test [6], in [15], in test [7], in test [16], in test [8] and in [9] was > 100 µM (inactive) in each case. The GI50 in [10], in test [11], in test [12], in test [19], in test [18] and in test [13] was > 100 µM (inactive) in each case.
In the case of `c1ccc(CSc2nc(N3CCOCC3)c3cn[nH]c3n2)cc1`, the GI50 is 40.7 µM (inactive) in test [1]; 11.6 µM (inactive) in test [2]; 25 µM (inactive) in test [14]; 17 µM (inactive) in test [3]; 15.2 µM (inactive) in test [20]; 7.85 µM (inactive) in [4]. The GI50 in [6] was 30.4 µM (inactive); in test [15], 16.4 µM (inactive); in test [7], 13.3 µM (inactive); in test [16] it was 9.18 µM (inactive); in [17], 10.5 µM (inactive); in [8], 27 µM (inactive). Further, the GI50 in test [9] was 17.2 µM (inactive); in test [10], 19.1 µM (inactive); in test [11] it was 20.5 µM (inactive); in test [12], 0.0438 µM (active); in [19], 22.3 µM (inactive); in [18] it was 6.1 µM (inactive). Besides, the GI50 in test [13] was 25.9 µM (inactive).
Consider `c1cc2c(cc1C1=NCCN1)c1cc(C3=NCCN3)ccc1n2CC1CCCCC1`, for which the GI50 in [1] was 22.5 µM (inactive); in test [2], 81.3 µM (inactive); in test [14], 18.5 µM (inactive); in test [3], 12.3 µM (inactive); in test [20], > 100 µM (inactive); in [4] it was 22.7 µM (inactive). Further, the GI50 in test [6] was 11.6 µM (inactive); in test [15], 14.1 µM (inactive); in [7], 8.73 µM (inactive); in [16], > 100 µM (inactive); in test [17], 7.26 µM (inactive); in [8], 23.8 µM (inactive). Besides, the GI50 in test [9] is > 100 µM (inactive); in test [10] it was 10.4 µM (inactive); in [11], 6.58 µM (inactive); in test [12], 11.5 µM (inactive); in test [19] it was 22.1 µM (inactive); in test [18] it was 39.5 µM (inactive). In addition, in [13], the GI50 is 20.4 µM (inactive).
Take `O=C1CSC(/C(=C/c2ccccc2)c2nc3ccccc3[nH]2)=N1`: the GI50 is > 100 µM (inactive) in test [1]; > 100 µM (inactive) in [2]; 23.3 µM (inactive) in test [14]; 7.55 µM (inactive) in test [3]; 41.3 µM (inactive) in test [5]; 14.2 µM (inactive) in [6]. Besides, the GI50 was > 100 µM (inactive) in test [15]; 32.4 µM (inactive) in [7]; > 100 µM (inactive) in test [16]; 68.2 µM (inactive) in test [17]; 41.2 µM (inactive) in test [8]; > 100 µM (inactive) in test [9]. In addition, the GI50 in test [10] was > 100 µM (inactive); in test [11] it was 23.3 µM (inactive); in [12], 34 µM (inactive); in test [19], > 100 µM (inactive); in test [13] it was > 100 µM (inactive).
Take `C=C(C)[C@@H]1C[C@H]2O[C@](O)(C(=C)CC(=O)/C=C(/C)C[C@@H]3OC(=O)[C@]24O[C@@H]34)[C@H]1O`: the GI50 in test [1], in [2], in test [14], in test [3], in test [20] and in test [4] was > 100 µM (inactive) each time. The GI50 in [6], in test [15], in test [7], in test [16], in [17] and in test [8] was > 100 µM (inactive) in each case. The GI50 in test [9], in test [10], in test [11], in test [12], in [19] and in test [18] was > 100 µM (inactive) throughout. Also, the GI50 in test [13] is > 100 µM (inactive).
With `CCOC(=O)C(=C=Cc1cccs1)C(=O)c1ccccc1`, the GI50 in [1] is 17 µM (inactive); in test [2], 14.3 µM (inactive); in test [14] it was 20.3 µM (inactive); in test [3], 15 µM (inactive); in test [4], 18.3 µM (inactive); in test [5] it was 16.2 µM (inactive). The GI50 in test [6] is 15.8 µM (inactive); in test [15], 16.7 µM (inactive); in test [7] it was 12.3 µM (inactive); in test [17], 19.9 µM (inactive); in [8], 18.7 µM (inactive); in [9], 18.8 µM (inactive). For the same compound, the GI50 in test [10] was 14.8 µM (inactive); in test [11], 16.9 µM (inactive); in test [12], 29.1 µM (inactive); in test [19], 15.2 µM (inactive); in test [13] it was 18 µM (inactive).
As for `O=C(NC12CC3CC(CC(F)(C3)C1)C2)c1ccccc1`, the GI50 in test [2] is 59.2 µM (inactive); in [14] it was > 100 µM (inactive); in test [4] it was > 100 µM (inactive); in test [5], > 100 µM (inactive); in test [6] it was 43.9 µM (inactive); in [15], > 100 µM (inactive). For the same compound, the GI50 in [7], in test [8], in test [9], in [10], in [11] and in [12] was > 100 µM (inactive) in each case. For the same compound, the GI50 in test [19], in [18] and in test [13] was > 100 µM (inactive) each time.
With `C/C(=N/Nc1ccc([N+](=O)[O-])cc1[N+](=O)[O-])C(CC(C(=O)Nc1ccccc1C)/C(C)=N\Nc1ccc([N+](=O)[O-])cc1[N+](=O)[O-])C(=O)Nc1ccccc1C` (centres undefined), the GI50 in [1] was 5.74 µM (inactive); in test [2] it was 11.5 µM (inactive); in test [14] it was 30.1 µM (inactive); in [3], 6.65 µM (inactive); in test [4], > 35 µM (inactive); in test [5] it was 14.5 µM (inactive). Also, the GI50 in test [6] was 10.1 µM (inactive); in test [15] it was 18.2 µM (inactive); in [7], 15.3 µM (inactive); in test [16] it was 14.2 µM (inactive); in [8] it was 11.9 µM (inactive); in test [9], 19.7 µM (inactive). Moreover, the GI50 in test [10] was 21.9 µM (inactive); in [11] it was 6.12 µM (inactive); in test [12], > 100 µM (inactive); in test [19], 16.9 µM (inactive); in [18], 6.49 µM (inactive); in test [13], 18.8 µM (inactive).
For the compound `CCOC(=O)C(=CNc1ccc(N(C2=NCC(C)S2)c2ccc(F)c(Cl)c2)cc1)C(=O)OCC` (centres undefined), the GI50 was 24.8 µM (inactive) in test [1]; 18.1 µM (inactive) in test [2]; 21.9 µM (inactive) in test [14]; 18.1 µM (inactive) in test [3]; 17.1 µM (inactive) in test [20]; 21.3 µM (inactive) in [4]. Besides, the GI50 was 20.4 µM (inactive) in test [6]; 19.5 µM (inactive) in test [15]; 18.7 µM (inactive) in test [7]; 39.2 µM (inactive) in [16]; 21.8 µM (inactive) in test [17]; 21.1 µM (inactive) in test [8]. The GI50 in test [9] is 18.5 µM (inactive); in test [10], 18.7 µM (inactive); in test [11] it was 20.8 µM (inactive); in test [12], 7.93 µM (inactive); in test [19] it was 19.6 µM (inactive); in [18] it was 6.05 µM (inactive). Besides, the GI50 in test [13] is 20.8 µM (inactive).
